Results as given in ChEMBL document CHEMBL2010711, “Synthesis and comparative evaluation of 4-oxa- and 4-aza-podophyllotoxins as antiproliferative microtubule destabilizing agents” (Bioorg Med Chem Lett, 2012).
Activity calls are given as the source filed them.

Key:
EKVX = assay: Cytotoxicity against human EKVX cells after 48 hrs by trypan blue dye exclusion assay; type: functional
A498 = assay: Cytotoxicity against human A498 cells after 48 hrs by trypan blue dye exclusion assay; type: functional; conditions: A498, 48 h
UACC-257 = assay: Cytotoxicity against human UACC257 cells after 48 hrs by trypan blue dye exclusion assay; type: functional; conditions: UACC-257, 48 h
OVCAR-8 = assay: Cytotoxicity against human OVCAR8 cells after 48 hrs by trypan blue dye exclusion assay; type: functional; conditions: OVCAR-8, 48 h
CAKI-1 = assay: Cytotoxicity against human CAKI-1 cells after 48 hrs by trypan blue dye exclusion assay; type: functional; conditions: CAKI-1, 48 h
SF-268 = assay: Cytotoxicity against human SF268 cells after 48 hrs by trypan blue dye exclusion assay; type: functional; conditions: SF-268, 48 h
OVCAR-4 = assay: Cytotoxicity against human OVCAR4 cells after 48 hrs by trypan blue dye exclusion assay; type: functional; conditions: OVCAR-4, 48 h
UACC-62 = assay: Cytotoxicity against human UACC62 cells after 48 hrs by trypan blue dye exclusion assay; type: functional; conditions: UACC-62, 48 h
MDA-MB-231 = assay: Cytotoxicity against human MDA-MB-231 cells after 48 hrs by trypan blue dye exclusion assay; type: functional; conditions: MDA-MB-231, 48 h
HL-60(TB) = assay: Cytotoxicity against human HL-60(TB) cells after 48 hrs by trypan blue dye exclusion assay; type: functional; conditions: HL-60, 48 h
DU-145 = assay: Cytotoxicity against human DU145 cells after 48 hrs by trypan blue dye exclusion assay; type: functional; conditions: DU-145, 48 h
SNB-19 = assay: Cytotoxicity against human SNB19 cells after 48 hrs by trypan blue dye exclusion assay; type: functional; conditions: SNB-19, 48 h
RPMI-8226 = assay: Cytotoxicity against human RPMI8226 cells after 48 hrs by trypan blue dye exclusion assay; type: functional; conditions: RPMI-8226, 48 h
MCF7 = assay: Cytotoxicity against human MCF7 cells after 48 hrs by trypan blue dye exclusion assay; type: functional; conditions: MCF7, 48 h
M14 = assay: Cytotoxicity against human M14 cells after 48 hrs by trypan blue dye exclusion assay; type: functional; conditions: M14, 48 h
SK-OV-3 = assay: Cytotoxicity against human SKOV3 cells after 48 hrs by trypan blue dye exclusion assay; type: functional; conditions: SK-OV-3, 48 h
NCI-H226 = assay: Cytotoxicity against human NCI-H226 cells after 48 hrs by trypan blue dye exclusion assay; type: functional; conditions: NCI-H226, 48 h
SR = assay: Cytotoxicity against human SR cells after 48 hrs by trypan blue dye exclusion assay; type: functional
RXF 393 = assay: Cytotoxicity against human RXF393 cells after 48 hrs by trypan blue dye exclusion assay; type: functional; conditions: RXF 393, 48 h
LOX IMVI = assay: Cytotoxicity against human LOXIMVI cells after 48 hrs by trypan blue dye exclusion assay; type: functional
Paracentrotus lividus [1] = assay: Antimitotic activity against Paracentrotus lividus embryo assessed as concentration required to cause 100% cleavage arrest after 2.5 to 6 hrs; type: functional
HOP-62 = assay: Cytotoxicity against human HOP62 cells after 48 hrs by trypan blue dye exclusion assay; type: functional; conditions: HOP-62, 48 h
SNB-75 = assay: Cytotoxicity against human SNB75 cells after 48 hrs by trypan blue dye exclusion assay; type: functional; conditions: SNB-75, 48 h
CCRF-CEM = assay: Cytotoxicity against human CCRF-CEM cells after 48 hrs by trypan blue dye exclusion assay; type: functional
K562 = assay: Cytotoxicity against human K562 cells after 48 hrs by trypan blue dye exclusion assay; type: functional; conditions: K562, 48 h
Malme-3M = assay: Cytotoxicity against human MALME-3M cells after 48 hrs by trypan blue dye exclusion assay; type: functional
HCT-15 = assay: Cytotoxicity against human HCT15 cells after 48 hrs by trypan blue dye exclusion assay; type: functional; conditions: HCT-15, 48 h
SF-295 = assay: Cytotoxicity against human SF295 cells after 48 hrs by trypan blue dye exclusion assay; type: functional; conditions: SF-295, 48 h
UO-31 = assay: Cytotoxicity against human UO31 cells after 48 hrs by trypan blue dye exclusion assay; type: functional; conditions: UO-31, 48 h
Paracentrotus lividus [2] = assay: Antimitotic activity against Paracentrotus lividus embryo assessed as concentration required to cause 100% cleavage alteration after 2.5 to 6 hrs; type: functional
SK-MEL-28 = assay: Cytotoxicity against human SK-MEL-28 cells after 48 hrs by trypan blue dye exclusion assay; type: functional; conditions: SK-MEL-28, 48 h
OVCAR-3 = assay: Cytotoxicity against human OVCAR3 cells after 48 hrs by trypan blue dye exclusion assay; type: functional; conditions: OVCAR-3, 48 h
PC-3 = assay: Cytotoxicity against human PC3 cells after 48 hrs by trypan blue dye exclusion assay; type: functional; conditions: PC-3, 48 h
TK-10 = assay: Cytotoxicity against human TK10 cells after 48 hrs by trypan blue dye exclusion assay; type: functional; conditions: TK-10, 48 h
[3] = Cytotoxicity against human Hs 578T cells after 48 hrs by trypan blue dye exclusion assay; type: functional
NCI-H23 = assay: Cytotoxicity against human NCI-H23 cells after 48 hrs by trypan blue dye exclusion assay; type: functional; conditions: NCI-H23, 48 h
Paracentrotus lividus [4] = assay: Antimitotic activity against Paracentrotus lividus embryo assessed as cleavage arrest at 2 fold less effective threshold concentration after 2.5 to 6 hrs; type: functional, organism-based
NCI/ADR-RES = assay: Cytotoxicity against human NCI/ADR-RES cells after 48 hrs by trypan blue dye exclusion assay; type: functional
HCT-116 = assay: Cytotoxicity against human HCT116 cells after 48 hrs by trypan blue dye exclusion assay; type: functional; conditions: HCT-116, 48 h
OVCAR-5 = assay: Cytotoxicity against human OVCAR5 cells after 48 hrs by trypan blue dye exclusion assay; type: functional; conditions: OVCAR-5, 48 h
SW-620 = assay: Cytotoxicity against human SW620 cells after 48 hrs by trypan blue dye exclusion assay; type: functional; conditions: SW-620, 48 h
SF-539 = assay: Cytotoxicity against human SF539 cells after 48 hrs by trypan blue dye exclusion assay; type: functional; conditions: SF-539, 48 h
HT-29 = assay: Cytotoxicity against human HT-29 cells after 48 hrs by trypan blue dye exclusion assay; type: functional; conditions: HT-29, 48 h
786-0 = assay: Cytotoxicity against human 786-0 cells after 48 hrs by trypan blue dye exclusion assay; type: functional; conditions: 786-0, 48 h
Paracentrotus lividus [5] = assay: Antimitotic activity against Paracentrotus lividus embryo assessed as cleavage alteration at 2 fold less effective threshold concentration after 2.5 to 6 hrs; type: functional, organism-based
BT-549 = assay: Cytotoxicity against human BT549 cells after 48 hrs by trypan blue dye exclusion assay; type: functional; conditions: BT-549, 48 h
NCI-H322M = assay: Cytotoxicity against human NCI-H322M cells after 48 hrs by trypan blue dye exclusion assay; type: functional
NCI-H522 = assay: Cytotoxicity against human NCI-H522 cells after 48 hrs by trypan blue dye exclusion assay; type: functional; conditions: NCI-H522, 48 h
Jurkat = assay: Cytotoxicity against human Jurkat cells; type: functional, cell-based
KM12 = assay: Cytotoxicity against human KM12 cells after 48 hrs by trypan blue dye exclusion assay; type: functional; conditions: KM12, 48 h
MOLT-4 = assay: Cytotoxicity against human MOLT4 cells after 48 hrs by trypan blue dye exclusion assay; type: functional; conditions: MOLT-4, 48 h

COc1ccc2c(c1)OC1=C(C(=O)OC1)C2c1cc(OC)c2c(c1)OCO2 (configuration not stated)
GI50 (EKVX): 77.8 nM | GI50 (A498): 27.2 nM | GI50 (UACC-257): 21300 nM | GI50 (OVCAR-8): 55.6 nM | GI50 (CAKI-1): 58 nM | GI50 (SF-268): 78 nM | GI50 (OVCAR-4): 59.8 nM | GI50 (UACC-62): 35 nM | GI50 (MDA-MB-231): 61.4 nM | GI50 (HL-60(TB)): 30.3 nM | GI50 (DU-145): 35.2 nM | GI50 (SNB-19): 47.9 nM | GI50 (RPMI-8226): 48.5 nM | GI50 (MCF7): 29.1 nM | GI50 (M14): 23.3 nM | GI50 (SK-OV-3): 29.3 nM | GI50 (NCI-H226): 33.4 nM | GI50 (SR): 37.8 nM | GI50 (RXF 393): 17.8 nM | GI50 (LOX IMVI): 69.1 nM | EC (Paracentrotus lividus [1]): 10 nM | GI50 (HOP-62): 34.9 nM | GI50 (SNB-75): 13.9 nM | GI50 (CCRF-CEM): 37 nM | GI50 (K562): 33 nM | GI50 (Malme-3M): > 100000 nM | GI50 (HCT-15): 47.5 nM | GI50 (SF-295): 20.2 nM | GI50 (UO-31): 57.6 nM | EC (Paracentrotus lividus [2]): 2 nM | GI50 (SK-MEL-28): 34.2 nM | GI50 (OVCAR-3): 20.9 nM | TGI (OVCAR-3): 44.6 nM | GI50 (PC-3): 40.9 nM | GI50 (TK-10): 268 nM | GI50 [3]: 30.8 nM | GI50 (NCI-H23): 23.5 nM | Activity (Paracentrotus lividus [4]): inactive | GI50 (NCI/ADR-RES): 18.6 nM | GI50 (HCT-116): 37.4 nM | GI50 (OVCAR-5): 153 nM | GI50 (SW-620): 39.2 nM | GI50 (SF-539): 34.4 nM | GI50 (HT-29): 33.1 nM | GI50 (786-0): 51.4 nM | Activity (Paracentrotus lividus [5]): inactive | GI50 (BT-549): 107 nM | GI50 (NCI-H322M): 71.3 nM | GI50 (NCI-H522): < 10 nM | IC50 (Jurkat): 55 nM | GI50 (KM12): 29.6 nM | GI50 (MOLT-4): 65 nM
